Article PMC3961306, “Comparison of the Cancer Gene Targeting and Biochemical Selectivities of All Targeted Kinase Inhibitors Approved for Clinical Use” (PLoS ONE, 2014)

What was measured:
Experiment in all cases: Kinase profiling in a biochemical assay panel (mobility shift assays and ELISA), %-inhibition at 1 μM; selectivity entropy
[1] = biological target: T1, panel of more than 300 wild-type and mutant kinases (313 kinase panel) (Homo sapiens, UniProt Q9NRA0)
T1 sequence (Q9NRA0 1-654): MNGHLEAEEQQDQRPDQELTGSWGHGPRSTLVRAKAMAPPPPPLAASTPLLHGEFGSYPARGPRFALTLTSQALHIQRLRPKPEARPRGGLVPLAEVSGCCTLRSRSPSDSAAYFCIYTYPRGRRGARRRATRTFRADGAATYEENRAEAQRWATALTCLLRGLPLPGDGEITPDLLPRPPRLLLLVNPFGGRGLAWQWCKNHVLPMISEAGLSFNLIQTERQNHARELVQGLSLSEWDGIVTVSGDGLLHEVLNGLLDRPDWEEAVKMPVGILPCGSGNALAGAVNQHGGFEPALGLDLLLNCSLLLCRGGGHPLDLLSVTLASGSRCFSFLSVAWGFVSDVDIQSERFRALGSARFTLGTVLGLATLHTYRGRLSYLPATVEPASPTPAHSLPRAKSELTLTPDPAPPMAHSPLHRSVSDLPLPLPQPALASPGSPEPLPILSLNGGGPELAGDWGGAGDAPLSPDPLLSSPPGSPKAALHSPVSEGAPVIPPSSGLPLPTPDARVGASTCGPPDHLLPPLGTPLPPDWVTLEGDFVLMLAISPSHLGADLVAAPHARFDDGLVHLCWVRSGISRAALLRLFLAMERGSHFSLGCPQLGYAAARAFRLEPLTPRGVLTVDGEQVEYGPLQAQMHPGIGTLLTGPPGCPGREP

[2] = biological target: panel of more than 300 wild-type and mutant kinases (313 kinase panel) (Homo sapiens, UniProt Q9P286)
Sequence of panel of more than 300 wild-type and mutant kinases (313 kinase panel) (Homo sapiens, UniProt Q9P286) (Q9P286 whole entry, change not shown): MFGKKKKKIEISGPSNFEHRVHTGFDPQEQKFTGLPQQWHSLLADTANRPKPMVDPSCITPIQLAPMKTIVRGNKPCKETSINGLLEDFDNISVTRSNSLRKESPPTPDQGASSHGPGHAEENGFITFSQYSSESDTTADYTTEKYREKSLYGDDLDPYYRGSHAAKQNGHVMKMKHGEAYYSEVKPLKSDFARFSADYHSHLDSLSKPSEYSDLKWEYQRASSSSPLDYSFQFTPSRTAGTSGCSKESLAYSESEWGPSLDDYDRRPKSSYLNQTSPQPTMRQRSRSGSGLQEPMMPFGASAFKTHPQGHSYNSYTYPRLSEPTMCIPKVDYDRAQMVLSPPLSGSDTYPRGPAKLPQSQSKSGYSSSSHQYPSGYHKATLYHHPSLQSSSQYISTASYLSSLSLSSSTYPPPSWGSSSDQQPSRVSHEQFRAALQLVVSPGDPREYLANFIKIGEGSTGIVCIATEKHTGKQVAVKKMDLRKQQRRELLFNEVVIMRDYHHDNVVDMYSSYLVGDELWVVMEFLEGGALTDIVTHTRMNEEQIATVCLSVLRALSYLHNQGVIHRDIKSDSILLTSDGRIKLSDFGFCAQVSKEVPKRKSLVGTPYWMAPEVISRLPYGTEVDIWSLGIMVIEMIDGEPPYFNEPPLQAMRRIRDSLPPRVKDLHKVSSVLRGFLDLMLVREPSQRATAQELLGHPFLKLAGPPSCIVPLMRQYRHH

[3] = biological target: panel of more than 300 wild-type and mutant kinases (313 kinase panel) (Homo sapiens, UniProt Q13233)
Sequence of panel of more than 300 wild-type and mutant kinases (313 kinase panel) (Homo sapiens, UniProt Q13233) (Q13233 whole entry, change not shown): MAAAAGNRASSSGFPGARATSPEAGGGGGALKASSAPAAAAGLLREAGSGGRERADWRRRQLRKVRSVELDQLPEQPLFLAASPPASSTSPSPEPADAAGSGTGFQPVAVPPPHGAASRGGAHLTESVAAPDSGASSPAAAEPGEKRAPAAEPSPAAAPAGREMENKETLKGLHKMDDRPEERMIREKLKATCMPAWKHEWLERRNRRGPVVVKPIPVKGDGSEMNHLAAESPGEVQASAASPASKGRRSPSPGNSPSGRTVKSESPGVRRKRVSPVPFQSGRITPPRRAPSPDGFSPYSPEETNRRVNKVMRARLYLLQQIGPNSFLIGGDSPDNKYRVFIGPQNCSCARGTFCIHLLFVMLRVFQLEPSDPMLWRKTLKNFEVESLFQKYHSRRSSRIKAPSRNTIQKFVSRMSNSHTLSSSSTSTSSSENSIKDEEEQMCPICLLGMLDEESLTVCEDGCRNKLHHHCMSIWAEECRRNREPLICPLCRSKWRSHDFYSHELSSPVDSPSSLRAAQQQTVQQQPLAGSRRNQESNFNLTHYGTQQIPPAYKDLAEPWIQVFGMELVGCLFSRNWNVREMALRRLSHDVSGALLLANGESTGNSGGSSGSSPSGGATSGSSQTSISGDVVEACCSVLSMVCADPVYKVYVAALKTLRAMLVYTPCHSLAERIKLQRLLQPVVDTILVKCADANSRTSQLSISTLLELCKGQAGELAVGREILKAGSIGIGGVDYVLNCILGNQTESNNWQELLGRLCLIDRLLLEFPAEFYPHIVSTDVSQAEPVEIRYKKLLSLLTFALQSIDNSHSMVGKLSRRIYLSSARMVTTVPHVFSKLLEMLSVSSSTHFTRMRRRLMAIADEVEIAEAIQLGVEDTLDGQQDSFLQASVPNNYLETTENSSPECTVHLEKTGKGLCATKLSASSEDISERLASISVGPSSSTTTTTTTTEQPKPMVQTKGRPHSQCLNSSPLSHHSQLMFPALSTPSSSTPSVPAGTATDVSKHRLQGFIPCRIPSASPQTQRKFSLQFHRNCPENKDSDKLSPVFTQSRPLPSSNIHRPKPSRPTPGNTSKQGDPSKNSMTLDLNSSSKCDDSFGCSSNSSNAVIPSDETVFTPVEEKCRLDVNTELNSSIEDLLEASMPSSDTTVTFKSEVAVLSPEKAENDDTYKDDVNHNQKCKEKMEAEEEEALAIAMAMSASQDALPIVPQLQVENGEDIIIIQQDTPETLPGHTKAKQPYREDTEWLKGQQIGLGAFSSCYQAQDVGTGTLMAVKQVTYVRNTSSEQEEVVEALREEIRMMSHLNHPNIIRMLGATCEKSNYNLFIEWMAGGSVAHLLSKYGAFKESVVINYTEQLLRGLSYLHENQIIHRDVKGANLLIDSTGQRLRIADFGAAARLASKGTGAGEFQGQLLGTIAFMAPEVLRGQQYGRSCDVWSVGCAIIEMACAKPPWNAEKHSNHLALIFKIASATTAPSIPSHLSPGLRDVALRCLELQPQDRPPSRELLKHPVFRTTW

[4] = biological target: panel of more than 300 wild-type and mutant kinases (313 kinase panel) (Homo sapiens, UniProt Q13131)
Sequence of panel of more than 300 wild-type and mutant kinases (313 kinase panel) (Homo sapiens, UniProt Q13131) (Q13131 whole entry, stated change not applied): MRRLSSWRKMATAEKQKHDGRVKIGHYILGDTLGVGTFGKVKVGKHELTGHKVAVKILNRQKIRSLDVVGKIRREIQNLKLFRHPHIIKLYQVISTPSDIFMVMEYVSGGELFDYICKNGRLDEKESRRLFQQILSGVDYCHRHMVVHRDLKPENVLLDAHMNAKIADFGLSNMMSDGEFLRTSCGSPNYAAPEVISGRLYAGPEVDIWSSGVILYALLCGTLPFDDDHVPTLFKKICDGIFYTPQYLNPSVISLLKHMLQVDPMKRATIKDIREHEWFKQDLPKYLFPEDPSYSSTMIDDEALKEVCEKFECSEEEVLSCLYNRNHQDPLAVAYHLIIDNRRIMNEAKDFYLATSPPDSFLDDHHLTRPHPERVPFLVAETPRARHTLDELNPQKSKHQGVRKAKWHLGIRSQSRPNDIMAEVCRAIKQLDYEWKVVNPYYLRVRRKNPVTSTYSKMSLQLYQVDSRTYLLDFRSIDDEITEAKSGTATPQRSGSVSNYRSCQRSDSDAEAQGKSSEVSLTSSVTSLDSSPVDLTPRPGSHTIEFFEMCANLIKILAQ

[5] = tested on: panel of more than 300 wild-type and mutant kinases (313 kinase panel); conditions: for %-inhibition of EGFR(d746-750) / %-inhibition of EGFR(d746-750/T790M) / %-inhibition of EML4-ALK / %-inhibition of LYNb / %-inhibition of PKCβ2 / %-inhibition of SRM: 1 µM
[6] = biological target: panel of more than 300 wild-type and mutant kinases (313 kinase panel) (Homo sapiens, UniProt Q13882)
Sequence of panel of more than 300 wild-type and mutant kinases (313 kinase panel) (Homo sapiens, UniProt Q13882) (Q13882 whole entry, change not shown): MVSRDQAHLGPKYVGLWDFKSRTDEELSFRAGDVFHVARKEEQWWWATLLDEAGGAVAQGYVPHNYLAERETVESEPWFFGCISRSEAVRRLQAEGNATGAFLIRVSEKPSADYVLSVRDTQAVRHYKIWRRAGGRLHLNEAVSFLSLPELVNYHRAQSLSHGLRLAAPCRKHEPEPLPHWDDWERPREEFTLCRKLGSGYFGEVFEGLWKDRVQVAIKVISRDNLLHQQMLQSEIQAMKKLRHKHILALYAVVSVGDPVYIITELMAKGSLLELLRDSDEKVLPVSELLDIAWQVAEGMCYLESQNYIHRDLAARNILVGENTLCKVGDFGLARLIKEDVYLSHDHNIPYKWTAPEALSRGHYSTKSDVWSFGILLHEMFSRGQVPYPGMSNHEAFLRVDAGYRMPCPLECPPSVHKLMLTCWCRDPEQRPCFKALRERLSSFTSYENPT

[7] = biological target: panel of more than 300 wild-type and mutant kinases (313 kinase panel) (Homo sapiens, UniProt Q8N4C8)
Sequence of panel of more than 300 wild-type and mutant kinases (313 kinase panel) (Homo sapiens, UniProt Q8N4C8) (Q8N4C8 whole entry, change not shown): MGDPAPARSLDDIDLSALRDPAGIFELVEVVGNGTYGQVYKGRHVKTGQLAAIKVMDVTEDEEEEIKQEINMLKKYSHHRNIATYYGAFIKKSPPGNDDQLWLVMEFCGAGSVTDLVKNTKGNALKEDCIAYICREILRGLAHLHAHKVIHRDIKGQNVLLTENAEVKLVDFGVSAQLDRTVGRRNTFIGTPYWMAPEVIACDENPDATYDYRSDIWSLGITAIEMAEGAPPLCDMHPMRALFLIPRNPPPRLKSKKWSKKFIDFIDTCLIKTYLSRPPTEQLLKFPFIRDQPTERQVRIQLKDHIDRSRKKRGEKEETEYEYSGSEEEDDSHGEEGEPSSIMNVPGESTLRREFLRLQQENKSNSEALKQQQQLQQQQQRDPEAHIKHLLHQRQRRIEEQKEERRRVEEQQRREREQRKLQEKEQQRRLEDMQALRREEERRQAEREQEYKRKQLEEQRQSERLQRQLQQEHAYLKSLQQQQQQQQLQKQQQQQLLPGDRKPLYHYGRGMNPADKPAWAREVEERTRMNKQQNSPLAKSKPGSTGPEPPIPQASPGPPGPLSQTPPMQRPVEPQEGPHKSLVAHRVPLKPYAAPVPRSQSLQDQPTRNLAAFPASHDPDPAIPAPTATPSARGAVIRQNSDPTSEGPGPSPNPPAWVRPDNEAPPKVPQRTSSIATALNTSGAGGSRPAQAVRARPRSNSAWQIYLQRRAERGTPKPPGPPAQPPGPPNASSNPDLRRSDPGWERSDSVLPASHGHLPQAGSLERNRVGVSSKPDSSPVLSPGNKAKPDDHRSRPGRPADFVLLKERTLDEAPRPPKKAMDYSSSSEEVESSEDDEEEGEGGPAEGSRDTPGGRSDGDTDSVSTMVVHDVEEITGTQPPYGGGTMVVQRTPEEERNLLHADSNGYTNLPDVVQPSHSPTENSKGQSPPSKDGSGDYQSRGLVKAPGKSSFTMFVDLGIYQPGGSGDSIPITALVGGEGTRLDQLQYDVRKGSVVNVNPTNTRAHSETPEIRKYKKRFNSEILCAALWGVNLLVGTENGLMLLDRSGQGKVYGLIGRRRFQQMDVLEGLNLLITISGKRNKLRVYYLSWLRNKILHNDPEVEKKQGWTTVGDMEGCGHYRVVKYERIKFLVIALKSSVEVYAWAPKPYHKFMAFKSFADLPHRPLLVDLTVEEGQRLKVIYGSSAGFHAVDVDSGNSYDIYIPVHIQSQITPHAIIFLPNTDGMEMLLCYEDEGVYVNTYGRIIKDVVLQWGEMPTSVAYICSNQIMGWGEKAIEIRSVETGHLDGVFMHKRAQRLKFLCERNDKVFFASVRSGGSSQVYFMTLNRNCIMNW

[8] = biological target: T2, panel of more than 300 wild-type and mutant kinases (313 kinase panel) (Homo sapiens, UniProt O60285)
T2 sequence (O60285 1-661): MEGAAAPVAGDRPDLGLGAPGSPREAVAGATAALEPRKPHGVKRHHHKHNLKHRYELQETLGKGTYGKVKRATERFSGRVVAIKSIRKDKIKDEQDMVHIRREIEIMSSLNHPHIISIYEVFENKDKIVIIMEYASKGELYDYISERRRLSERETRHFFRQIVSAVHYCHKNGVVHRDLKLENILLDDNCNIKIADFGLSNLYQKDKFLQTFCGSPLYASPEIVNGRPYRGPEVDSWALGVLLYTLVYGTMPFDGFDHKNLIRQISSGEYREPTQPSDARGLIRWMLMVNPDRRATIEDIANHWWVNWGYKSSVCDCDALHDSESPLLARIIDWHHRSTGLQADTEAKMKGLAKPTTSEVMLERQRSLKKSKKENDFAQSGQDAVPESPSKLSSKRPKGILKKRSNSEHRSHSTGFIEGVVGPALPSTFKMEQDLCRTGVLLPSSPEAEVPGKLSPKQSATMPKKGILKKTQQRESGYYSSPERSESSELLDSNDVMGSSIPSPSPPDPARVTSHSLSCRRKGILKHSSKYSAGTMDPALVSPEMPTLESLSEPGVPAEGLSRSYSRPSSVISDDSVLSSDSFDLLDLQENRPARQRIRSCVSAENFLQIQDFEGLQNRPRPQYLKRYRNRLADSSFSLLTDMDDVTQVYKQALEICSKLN

[9] = biological target: panel of more than 300 wild-type and mutant kinases (313 kinase panel) (Homo sapiens, UniProt Q9P1W9)
[10] = biological target: panel of more than 300 wild-type and mutant kinases (313 kinase panel) (Homo sapiens, UniProt Q02750)
[11] = biological target: panel of more than 300 wild-type and mutant kinases (313 kinase panel) (Homo sapiens, UniProt Q9UPE1)
[12] = biological target: panel of more than 300 wild-type and mutant kinases (313 kinase panel) (Homo sapiens, UniProt Q04912)
[13] = kinase MAP3K1, compound at 1 μM
[14] = kinase AMPKα1/β1/γ1, 1 μM compound
[15] = kinase MAP2K1, compound at 1 μM

SMILES	%-inhibition of SPHK2 ([1]; kinase SPHK2, 1 μM) [%]	%-inhibition of PAK5 ([2]; kinase PAK5, 1 μM) [%]	%-inhibition of MAP3K1 [3, 13] [%]	%-inhibition, AMPKα1/β1/γ1 [4, 14] [%]	%-inhibition of NPM1-ALK [5] [%]	%-inhibition of TAK1-TAB1 [5] [%]	%-inhibition of EGFR(d746-750) [5] [%]	%-inhibition of EGFR(d746-750/T790M) [5] [%]	%-inhibition of EML4-ALK [5] [%]	%-inhibition of LYNb [5] [%]	%-inhibition of PKCβ2 [5] [%]	%-inhibition of SRM [5] [%]	%-inhibition, BRK ([6]; kinase BRK, 1 μM compound) [%]	%-inhibition of MINK ([7]; kinase MINK, 1 μM) [%]	%-inhibition of PIM2 ([9]; kinase PIM2, 1 μM) [%]	%-inhibition of MAP2K1 [10, 15] [%]	other results
CN(C)C/C=C/C(=O)Nc1cc2c(Nc3ccc(F)c(Cl)c3)ncnc2cc1O[C@H]1CCOC1 [afatinib]	-10	–	–	–	–	–	–	–	–	–	–	–	–	–	–	–	–
COc1cc(Nc2c(C#N)cnc3cc(OCCCN4CCN(C)CC4)c(OC)cc23)c(Cl)cc1Cl [bosutinib]	4.4	17	60	9	66	83	100	92	54	94	22	58	35	100	-12	–	%-inhibition of NuaK1 ([8]; kinase NuaK1, 1 μM): 84%
C[C@@H](Oc1cc(-c2cnn(C3CCNCC3)c2)cnc1N)c1c(Cl)ccc(F)c1Cl [crizotinib]	8	7	28	16	–	5	2	8	–	34	-1.6	1.51	15	0	-5.28	0.819	%-inhibition of NuaK1 ([8]; 1 µM): 99%
Cc1nc(Nc2ncc(C(=O)Nc3c(C)cccc3Cl)s2)cc(N2CCN(CCO)CC2)n1 [dasatinib]	–	–	–	–	–	–	–	–	–	–	–	–	–	40	5	–	%-inhibition of MSSK1 ([11]; kinase MSSK1, 1 μM): -4.63%
C#Cc1cccc(Nc2ncnc3cc(OCCOC)c(OCCOC)cc23)c1 [erlotinib]	–	–	–	–	19	5	–	–	26	60	6	11	–	–	–	–	%-inhibition of MSSK1 ([11]; 1 µM): -5%; %-inhibition of SPHK2 ([1]; 1 µM): -2.22%; %-inhibition of PAK5 ([2]; 1 µM): -0.141%; %-inhibition of MAP3K1 ([3]; 1 µM): 6%; %-inhibition of RON ([12]; 1 µM): 8%; %-inhibition, AMPKα1/β1/γ1 ([4]; 1 µM): 2%; %-inhibition of MAP2K1 ([10]; 1 µM): 26%; %-inhibition, BRK ([6]; 1 µM): 47%; %-inhibition of MINK ([7]; 1 µM): 19%; %-inhibition of NuaK1 ([8]; 1 µM): 12%; %-inhibition of PIM2 ([9]; 1 µM): 9%
CCN(CC)CCNC(=O)c1c(C)[nH]c(/C=C2\C(=O)Nc3ccc(F)cc32)c1C [sunitinib]	–	35	–	–	–	–	–	–	–	–	–	–	–	–	–	89	%-inhibition of RON ([12]; kinase RON, 1 μM): 22%
COc1cc2c(Nc3ccc(Br)cc3F)ncnc2cc1OCC1CCN(C)CC1 [vandetanib]	5.7	-3.26	-7.43	9	28	6	100	85	20	91	-2.13	39	100	24	-6.49	10	%-inhibition of MSSK1 ([11]; kinase MSSK1, 1 μM): -4.37%; %-inhibition of NuaK1 ([8]; kinase NuaK1, 1 μM): 16%
